“Also recorded” adds a separate entry of the source.
Legend:
HCT116 cells = test: Soft agar colony formation assay; type: cell-based, human; details: at a concentration of 10 μM and greater
[1] = test system: α-tubulin acetylation in HCT116 cells; test: α-tubulin acetylation by immunofluorescence; type: cell-based, human; details: six hours
HCT116 xenograft = HCT116 xenograft mice study; type: in vivo, NSG mice; details: 25 mg/kg intraperitoneal, every day
[2] = Mouse body weight in xenograft study; type: in vivo, NSG mice; details: treatment groups of xenograft study, intraperitoneal
SIRT2 [3] = biological target: T1, SIRT2 (Homo sapiens, UniProt Q8IXJ6); test: LC-MS detection of covalent intermediate with NAD+ in the presence of SIRT2; type: biochemical; details: incubated with an excess of SIRT2 and NAD+
T1 sequence (Q8IXJ6 1-389): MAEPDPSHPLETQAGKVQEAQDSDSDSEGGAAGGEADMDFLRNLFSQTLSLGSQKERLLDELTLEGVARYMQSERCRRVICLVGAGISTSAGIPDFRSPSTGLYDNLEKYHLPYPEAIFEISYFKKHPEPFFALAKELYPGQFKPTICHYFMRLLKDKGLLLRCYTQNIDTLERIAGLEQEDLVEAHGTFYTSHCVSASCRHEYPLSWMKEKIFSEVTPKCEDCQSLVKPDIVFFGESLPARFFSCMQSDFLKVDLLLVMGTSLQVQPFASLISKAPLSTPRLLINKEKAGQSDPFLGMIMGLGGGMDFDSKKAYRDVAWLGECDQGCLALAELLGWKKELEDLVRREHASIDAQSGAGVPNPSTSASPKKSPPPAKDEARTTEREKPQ

[4] = test system: p53 acetylation in HCT116 cells; test: p53 K382 acetylation by western blot; details: for acetyl p53 (K382) levels: HCT116, 25 μM inhibitor with 400 nM TSA, 6 hours; for dose dependence of acetyl p53 levels: HCT116, 10–50 μM inhibitor with Trichostatin A
SIRT1 = biological target: T2, SIRT1 (Homo sapiens, UniProt Q96EB6); test: Enzyme IC50 assay, acetyl H3K9 peptide, liquid chromatography; type: biochemical; details: in vitro
T2 sequence (Q96EB6 1-747): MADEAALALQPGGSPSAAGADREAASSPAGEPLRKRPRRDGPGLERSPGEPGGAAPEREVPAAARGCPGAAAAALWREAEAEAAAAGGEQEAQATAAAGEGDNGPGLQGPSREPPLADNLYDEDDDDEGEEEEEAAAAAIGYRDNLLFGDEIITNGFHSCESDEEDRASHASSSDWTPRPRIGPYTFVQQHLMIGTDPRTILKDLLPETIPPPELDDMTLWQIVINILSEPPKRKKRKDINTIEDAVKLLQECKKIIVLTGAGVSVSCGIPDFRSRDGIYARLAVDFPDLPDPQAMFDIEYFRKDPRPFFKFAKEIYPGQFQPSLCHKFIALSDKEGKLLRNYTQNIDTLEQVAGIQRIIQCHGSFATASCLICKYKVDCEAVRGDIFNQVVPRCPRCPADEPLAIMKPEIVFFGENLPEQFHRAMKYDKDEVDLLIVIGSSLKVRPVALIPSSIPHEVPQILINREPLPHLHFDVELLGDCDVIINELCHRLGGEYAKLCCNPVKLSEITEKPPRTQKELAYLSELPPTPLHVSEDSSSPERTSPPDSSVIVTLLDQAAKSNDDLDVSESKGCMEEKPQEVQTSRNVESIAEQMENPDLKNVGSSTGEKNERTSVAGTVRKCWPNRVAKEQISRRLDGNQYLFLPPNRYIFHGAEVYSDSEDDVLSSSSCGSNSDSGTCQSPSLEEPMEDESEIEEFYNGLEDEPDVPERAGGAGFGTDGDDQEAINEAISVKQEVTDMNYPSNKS

SIRT2 [5] = biological target: T1, SIRT2; test: as above; type: biochemical; details: relative selectivity for SIRT2 over SIRT1, Table 1

Row | Structure (SMILES) | growth of HCT116 cells in soft agar (HCT116 cells) | α-tubulin acetylation ([1]; HCT116, 25 μM inhibitor) | α-tubulin acetylation ([1]; HCT116, 50 μM inhibitor) | tumor growth by volume and weight (HCT116 xenograft) | mouse body weight loss [2] | covalent inhibitor-ADP-ribose intermediate by LC-MS (SIRT2 [3]) | acetyl p53 (K382) levels [4] | dose dependence of acetyl p53 levels [4] | inhibition of SIRT1 deacetylase activity (in words) (SIRT1) | SIRT2/SIRT1 Selectivity (SIRT2 [5])
1 | CCCCCCCCNC(=S)NCCCC[C@H](NC(=O)OCc1ccccc1)C(=O)Nc1ccccc1 [AF8, benzyl (S)-(6-(3-octylthioureido)-1-oxo-1-(phenylamino)hexan-2-yl)carbamate] | completely inhibited | extensive α-tubulin hyperacetylation; also recorded: increased α-tubulin acetylation | extensive α-tubulin hyperacetylation; also recorded: also increased α-tubulin acetylation | slightly decreased tumor growth by volume and weight but did not result in a statistically significant difference | No significant weight loss | detected | did not increase the levels of acetyl p53; also recorded: did not noticeably increase p53 acetylation | did not increase acetyl p53 levels in a dose dependent manner | – | –
2 | CCCCCCCCCCNC(=S)NCCCC[C@H](NC(=O)OCc1ccccc1)C(=O)Nc1ccccc1 [AF10, Benzyl (S)-(6-(3-decylthioureido)-1-oxo-1-(phenylamino)hexan-2-yl)carbamate] | completely inhibited | extensive α-tubulin hyperacetylation; also recorded: increased α-tubulin acetylation | extensive α-tubulin hyperacetylation; also recorded: also increased α-tubulin acetylation | – | No significant weight loss | – | did not increase the levels of acetyl p53; also recorded: did not noticeably increase p53 acetylation | very slight increase in acetyl p53 | no inhibition | >1000
3 | CCCCCCCCCCCCNC(=S)NCCCC[C@H](NC(=O)OCc1ccccc1)C(=O)Nc1ccccc1 [AF12, Benzyl (S)-(6-(3-dodecylthioureido)-1-oxo-1-(phenylamino)hexan-2-yl)carbamate] | – | – | – | – | – | – | – | – | no inhibition | >1000
4 | CCCNC(=S)NCCCC[C@H](NC(=O)OCc1ccccc1)C(=O)Nc1cccc(O)c1 [Compound C3, Benzyl (S)-(1-((3-hydroxyphenyl)amino)-1-oxo-6-(3-propylthioureido)hexan-2-yl)carbamate] | – | did not increase the acetylation of α-tubulin | did not increase the acetylation of α-tubulin | – | – | – | did not increase the acetylation of p53 | – | – | –
5 | CCCCCNC(=S)NCCCC[C@H](NC(=O)OCc1ccccc1)C(=O)Nc1cccc(O)c1 [Compound C5, Benzyl (S)-(1-((3-hydroxyphenyl)amino)-1-oxo-6-(3-pentylthioureido)hexan-2-yl)carbamate] | – | slightly increased α-tubulin acetylation | increased α-tubulin acetylation; also recorded: more robustly increased acetylation | – | – | – | moderately increased the acetylation of p53; also recorded: moderately increased acetyl p53 levels | – | – | –
6 | CCCCCCCCCCNC(=S)NCCCC[C@H](NC(=O)OCc1ccccc1)C(=O)Nc1cccc(O)c1 [Compound C10, Benzyl (S)-(6-(3-decylthioureido)-1-((3-hydroxyphenyl)amino)-1-oxohexan-2-yl)carbamate] | – | more strongly increased α-tubulin acetylation; also recorded: increased α-tubulin acetylation | increased α-tubulin acetylation | – | – | – | moderately increased the acetylation of p53; also recorded: moderately increased acetyl p53 levels | dose dependent increase in acetyl p53 levels; also recorded: dose dependent increase of acetyl p53 | – | –
7 | CCCCCCCCCCCCCC(=S)NCCCC[C@H](NC(=O)OCc1ccccc1)C(=O)Nc1ccccc1 [TM, reference compound] | – | increased α-tubulin acetylation | also increased α-tubulin acetylation | – | – | – | did not increase the levels of acetyl p53 | – | – | –

Reference: publication PMC6901289 (Journal of medicinal chemistry, 2019)
